Earlier results, collected in patent publication US6555583B2, “Therapies for treating pulmonary diseases” (SmithKline Beecham Corporation, priority 1998, dated 2003).

Details: rolipram developed as an antidepressant

COc1ccc(C2CNC(=O)C2)cc1OC1CCCC1 (stereo not shown) [rolipram]
side effects in clinical studies: psychotropic activity and produces gastrointestinal effects
